Data reported in patent US12011459B2, “Methods for manufacturing T cells by direct sorting and compositions thereof” (Immatics US, Inc., priority 2019, dated 2024).
Where “and” joins values, the source holds several entries; their conditions need not be identical. Identical values can stand only once.

Assays:
[1] = test system: PBMC; test: Col6A3-002 2D tetramer staining of PBMC with dasatinib treatment, flow cytometry; type: cell-based, human; conditions: for 2D PE/BV421 Tet-positive and irrelevant peptide APC tetramer-negative events: 4° C.
Experimental: To compare the effects of PKI and temperatures on pMHC multimer staining, healthy donor peripheral blood mononuclear cells (PBMCs) were pretreated with 50 nM Dasatinib (FIG. 21A) or untreated (FIG. 21B) and then stained with two Col6A3-002 peptide (FLLDGSANV (SEQ ID NO: 141)) (Col) tetramers (2Dtet) conjugated to streptavidin BV421 and PE, and five different irrelevant APC tetramers (peptide 1, peptide 2, peptide 3, peptide 4, and peptide 5) at either 37° C. (FIG. 21A) or room-temperature (RT) (FIG. 21B) for 30 minutes. Following tetramer staining, samples were counterstained with tetramer stabilizing antibodies staining against PE and APC at 4° C., followed by staining with anti-CD45 PE-Cy7 antibody at 4° C.
To determine which staining conditions that may provide lowest background and lowest false positive rate, PBMC were stained with or without PKI treatment, e.g., dasatinib (DAS), with or without irrelevant peptide tetramer mix at different tetramer staining temperatures (Hadrup et al., Nat. Methods, 2009, 6:520-526; the content of which is hereby incorporated by reference in its entirety). For example, PBMC cells were stained with 2D Tet (PE+BV421) in the presence or in the absence of irrelevant peptide tetramer mix, e.g., five different irrelevant peptides (e.g., Col6A3-015 (YLMDDFSSL (SEQ ID NO: 16)), MAG-003 (KVLEHVVRV (SEQ ID NO: 118)), MAGEC2-001 (TLDEKVAEL (SEQ ID NO: 161)), MXRA5-003 (LLWGHPRVALA (SEQ ID NO: 18), and MAGEA1-003 (KVLEYVIKV (SEQ ID NO: 105)) APC tetramers±DAS treatment, at 37° C. or at room temperature (RT). DAS treatments were performed at 37° C.
To investigate PBMC staining under conditions D and G, PBMC (12.5×10^6 cells/ml) obtained from 4 donors were stained±DAS treatment (50 nM, at 37° C.), Col6A3-002 BV421 tetramer (3 μg/ml) and Col6A3-002 PE Tetramer (2.5 μg/ml), fluorochrome-labeled anti-CD45 antibody, e.g., PE-Cy7 mouse anti-human CD45 (BD Biosciences), Col6A3-002 BV421 tetramer (3 μg/ml), and APC irrelevant peptides (n=5, e.g., Col6A3-015 (YLMDDFSSL (SEQ ID NO: 16)), MAG-003 (KVLEHWRV (SEQ ID NO: 118)), MAGEC2-001 (TLDEKVAEL (SEQ ID NO: 161)), MXRA5-003 (LLWGHPRVALA (SEQ ID NO: 18), and MAGEA1-003 (KVLEYVIKV (SEQ ID NO: 105)) tetramer mix (3 μg/ml) with all staining, spins, and washes at 4° C.
The experiments shown in FIGS. 37A-37D were repeated using a different fluorochrome-labeled anti-CD45 antibody, e.g., PE-Cy™7 mouse anti-human CD45 (BD Biosciences). PBMC (10×10^6 cells/nil) obtained from 4 donors were stained with or without DAS treatment (50 nM, at 37° C.), BV421 (3 μg/ml), Col6A3-002 2D Tet (PE+BV421) (2.5 μg/ml), PerCP-Cy™5.5 mouse anti-human CD45 (BD Biosciences), Col6A3-002 BV421 tetramer (3 μg/ml), and APC (n=5) irrelevant tetramer mix (3 μg/ml) with all staining, spins, and washes at 4° C.

[2] = test system: Col6A3 REP1 cells (αCol6A3 T cells); test: Col6A3-002 2D tetramer staining of Col6A3 REP1 cells with dasatinib treatment, flow cytometry; type: cell-based; conditions: for background staining of BV421/APC double-positive irrelevant peptide T cells (Q2): bench and centrifugation at 4° C.
Experimental: To determine which staining conditions that may provide higher staining index (SI), indicating better separation of cells stained positive from cells stained negative, and lower false negative rate, Col6A3 REP1 cells, which were prepared by rapid expansion protocol (REP), were stained±DAS treatment (at 37° C.), ±irrelevant peptide tetramer mix, and staining at RT or 37° C.
Staining index (SI) may be calculated by using formula (I): SI=(mean PE+mean BV421 2Dtet+)−(mean PE+mean BV421 2Dtet−)/2×(SD PE+SD BV421 2Dtet−). […] (P=0.316695), and ±irrelevant peptide tetramer mix (P=0.597223).
The estimation per 1×10^6 based on flow %, which indicates numbers of peptide-specific T cells per 1×10^6 of CD45+ cells, may be calculated by the formula: (2Dtet+%×1×10^6/100)−((2Dtet+%×1×10^6/100)×irrelevant peptide tetramer mix+%/100)). Table 14 summarizes the estimations under the staining conditions A-G. DAS treatment was performed at 37° C. for 30 minutes.

[3] = test system: αCol6A3 T cells spiked in PBMC (1:1×10^5); test: Col6A3-002 2D tetramer staining of αCol6A3 T cells spiked in PBMC, condition #1; type: cell-based; conditions: staining at 37° C.
Experimental: Condition #1: with DAS treatment+irrelevant peptide tetramer mix, staining at 37° C.
Sample #2: αCol6A3 T cells spiked in PBMC (1:1×10^5), about 2×10^6 CD45+cells acquired

[4] = test system: Col6A3 REP1 cells (αCol6A3 T cells); test: Col6A3-002 2D tetramer staining of Col6A3 REP1 cells with dasatinib treatment, flow cytometry; type: cell-based; conditions: Col6A3 PEP1 cells
[5] = PBMC, DAS treatment, staining at RT, with irrelevant peptide APC tetramer mix
[6] = DAS treatment, staining at 37° C., with irrelevant peptide APC tetramer mix, listed as DAS
[7] = DAS treatment, staining at RT, with irrelevant peptide APC tetramer mix
[8] = DAS treatment + irrelevant peptide tetramer mix

Cc1nc(Nc2ncc(C(=O)Nc3c(C)cccc3Cl)s2)cc(N2CCN(CCO)CC2)n1 [Dasatinib, dasatinib]
2D PE/BV421 Tet-positive and irrelevant peptide APC tetramer-negative events ([1]; PBMC sample S1, in 1.29×10^7 lymphocytes acquired, DAS): 128 events | 2D PE/BV421 Tet-positive and irrelevant peptide APC tetramer-negative events ([1]; PBMC sample S2, in 6.09×10^6 lymphocytes acquired, DAS): 68 events | 2D PE/BV421 Tet-positive and irrelevant peptide APC tetramer-negative events ([1]; PBMC sample S3, in 9.71×10^5 lymphocytes acquired, DAS): 23 events | 2D PE/BV421 Tet-positive and irrelevant peptide APC tetramer-negative events ([1]; PBMC sample S4, in 5.35×10^6 lymphocytes acquired, DAS): 80 events | 2D Tet (PE+BV421) double-positive cells (Q2) of CD45+ cells ([1]; PBMC, 50 nM dasatinib treatment, Tet staining at 37° C., with irrelevant peptide APC tetramer mix): 0.027% | 2D Tet (PE+BV421) double-positive cells (Q2) of CD45+ cells ([1]; PBMC, DAS 50 nM at 37° C., all staining, spins, washes at 4° C., with irrelevant mix, FIG. 37A): 4.23E-3% | 2D Tet (PE+BV421)-positive and irrelevant peptide-negative cells in Q2 cells ([1]; PBMC, DAS 50 nM, all staining, spins, washes at 4° C., FIG. 37A): 46.5% | 2D Tet (PE+BV421) double-positive cells (Q2) of CD45+ cells ([1]; PBMC, DAS treatment, staining at 37° C., absence of irrelevant peptide APC tetramer mix): 0.19% | APC-negative/BV421-positive cells (true Col6A3-specific T cells, Q1) in Q2 cells ([1]; PBMC, DAS treatment, staining at 37° C., with irrelevant peptide APC tetramer mix): 0.93% | irrelevant peptide positive T cells in the BV421/PE double-positive (Q2) cells ([1]; PBMC, DAS treatment, staining at 37° C., with irrelevant peptide APC tetramer mix, listed as DAS): 98.2% and 99.1% | 2D Tet (PE+BV421) double-positive cells (Q2) of CD45+ cells ([1]; PBMC, DAS treatment, staining at RT, absence of irrelevant peptide APC tetramer mix): 7.17E-3% | 2D Tet (PE+BV421) double-positive cells (Q2) of CD45+ cells [1, 5]: 8.04E-3% | APC-negative/BV421-positive cells (true Col6A3-specific T cells, Q1) in Q2 cells [1, 5]: about 4.76% | irrelevant peptide positive T cells in the BV421/PE double-positive (Q2) cells [1, 5]: 95.2% | final frequency: one Col Tet+ T cell in N CD45+ cells ([1]; PBMC, dasatinib treatment, staining at 37° C., with irrelevant APC tetramers): 4×10^5 CD45+ cells | 2D PE/BV421 Tet-positive and irrelevant peptide APC tetramer-negative events ([1]; PBMC, in 4.78×10^6 lymphocytes acquired, DAS): 94 events | increase of MFI ([1]; in ¼ of DAS-treated samples): about 2 × | 2D PE/BV421 Tet-positive and irrelevant peptide APC tetramer-negative cells detected ([1]; only PBMC, in 2×10^6 CD45+ cells acquired, DAS, staining at 37° C.): 5 cells | irrelevant peptide positive T cells in Q2 cells [2, 6]: 6.38% and 3.18% | staining index (SI) [2, 6]: 19.0 and 15.6 | 2D Tet (PE+BV421) double-positive cells (Q2) of CD45+ cells [2, 7]: 55.8% | APC-negative/BV421-positive cells (true Col6A3 REP1 cells, Q1) in Q2 cells [2, 7]: about 78.4% | irrelevant peptide positive T cells in Q2 cells [2, 7]: 21.6% | staining index (SI) [2, 7]: 24.0 | Estimation per 1e6 based on flow % (peptide-specific T cells per 1×10^6 CD45+ cells) ([2]; condition A: Dasatinib +, Tet stain 37, bench RT, centrifuge RT): 2.24 × 10^5 per 1e6 | background staining of BV421/APC double-positive irrelevant peptide T cells (Q2) ([2]; condition C: DAS, Tet staining at 37° C.): 2.01% | Estimation per 1e6 based on flow % (peptide-specific T cells per 1×10^6 CD45+ cells) ([2]; condition C: Dasatinib +, Tet stain 37, bench 4, centrifuge 4): 5.61 × 10^5 per 1e6 | background staining of BV421/APC double-positive irrelevant peptide T cells (Q2) ([2]; condition D: DAS, Tet staining): 13.7% | Estimation per 1e6 based on flow % (peptide-specific T cells per 1×10^6 CD45+ cells) ([2]; condition D: Dasatinib +, Tet stain 4, bench 4, centrifuge 4): 6.75 × 10^5 per 1e6 | background staining of BV421/APC double-positive irrelevant peptide T cells (Q2) ([2]; condition F: DAS, Tet staining at RT): 3.07% | Estimation per 1e6 based on flow % (peptide-specific T cells per 1×10^6 CD45+ cells) ([2]; condition F: Dasatinib +, Tet stain RT, bench 4, centrifuge 4): 6.75 × 10^5 per 1e6 | 2D PE/BV421 Tet double-positive cells (Q2) of CD45+ cells [3, 8]: 0.035% | APC-negative/BV421-positive cells (true αCol6A3 T cells, Q1) in Q2 cells [3, 8]: about 2.58% | BV421/APC double-positive irrelevant peptide T cells in Q2 cells [3, 8]: 97.4% | one αCol6A3 T cell in N CD45+ cells [3, 8]: 1×10^5 CD45+ cells | 2D PE/BV421 Tet-positive and irrelevant peptide APC tetramer-negative events ([3]; in 2×10^6 CD45+ cells acquired, DAS): 18 events | 2D Tet (PE+BV421)-positive and irrelevant peptide-negative cells in Q2 cells ([4]; DAS treatment, 4° C., FIG. 39): 95.8% | 2D Tet (PE+BV421) double-positive cells (Q2) of CD45+ cells ([4]; DAS treatment, all staining, spins, washes at 4° C., FIG. 39): 68.9% | 2D PE/BV421 Tet-positive and irrelevant peptide APC tetramer-negative events ([4]; in 206055 lymphocytes acquired, DAS, 4° C.): 135941 events
